Experimental findings from ChEMBL document CHEMBL5143701, “Evaluation of potential anticonvulsant fluorinated N-benzamide enaminones as T-type Ca2+ channel blockers” (Bioorg Med Chem, 2022) are described below.

The source made the active and inactive calls. The rule behind the calls is not given here.

Common to all, as to format: cell-based
In assay [1] the test system is ND7/23. Put plainly: Inhibition of Voltage-dependent T-type calcium channel in mouse ND7/23 cells assessed as reduction in volatage induced T-type Ca2+ current density at 50 uM incubated for 5 mins by whole cell voltage-clamp assay.
Assay [2] has as its target Voltage-dependent T-type calcium channel subunit alpha-1I (Homo sapiens) (UniProt Q9P0X4). The assay is described as follows: Inhibition of Cav3.3 (unknown origin) stably transfected in HEK293 cells assessed as activation time constant transient current at 10 uM incubated for 5 mins by whole cell voltage-clamp assay.
The target is the same in assay [3]. Put plainly: Inhibition of Cav3.3 (unknown origin) stably transfected in HEK293 cells assessed as reduction inactivation time constant transient current at 10 uM incubated for 5 mins by whole cell voltage-clamp assay.
Assay [4] addresses Voltage-dependent T-type calcium channel subunit alpha-1H (Homo sapiens) (UniProt O95180). The assay is described as follows: Inhibition of Cav3.2 (unknown origin) stably transfected in HEK293 cells assessed as volatage induced T-type Ca2+ current at 1 to 50 uM incubated for 5 mins by whole cell voltage-clamp assay. The following applies: dose 1-50 µM.
For assay [5] the target is unchanged. Put plainly: Inhibition of Cav3.2 (unknown origin) stably transfected in HEK293 cells assessed as slope factor at 10 uM incubated for 5 mins by whole cell voltage-clamp assay (reference value: 5.2 +/- 0.2No_unit).
Assay [6] has as its target Voltage-dependent T-type calcium channel subunit alpha-1I (Homo sapiens) (UniProt Q9P0X4). The assay is described as follows: Inhibition of Cav3.3 (unknown origin) stably transfected in HEK293 cells assessed as V1/2 at 10 uM incubated for 5 mins by whole cell voltage-clamp assay (reference value: -65.6 +/- 3.1mV).
For assay [7], the target named is Voltage-dependent T-type calcium channel subunit alpha-1H (Homo sapiens) (UniProt O95180). The assay is described as follows: Inhibition of Cav3.2 (unknown origin) stably transfected in HEK293 cells assessed as reduction in volatage induced peak current at 10 uM incubated for 5 mins by whole cell voltage-clamp assay.
Sequence of Voltage-dependent T-type calcium channel subunit alpha-1H (Homo sapiens) (O95180 whole entry): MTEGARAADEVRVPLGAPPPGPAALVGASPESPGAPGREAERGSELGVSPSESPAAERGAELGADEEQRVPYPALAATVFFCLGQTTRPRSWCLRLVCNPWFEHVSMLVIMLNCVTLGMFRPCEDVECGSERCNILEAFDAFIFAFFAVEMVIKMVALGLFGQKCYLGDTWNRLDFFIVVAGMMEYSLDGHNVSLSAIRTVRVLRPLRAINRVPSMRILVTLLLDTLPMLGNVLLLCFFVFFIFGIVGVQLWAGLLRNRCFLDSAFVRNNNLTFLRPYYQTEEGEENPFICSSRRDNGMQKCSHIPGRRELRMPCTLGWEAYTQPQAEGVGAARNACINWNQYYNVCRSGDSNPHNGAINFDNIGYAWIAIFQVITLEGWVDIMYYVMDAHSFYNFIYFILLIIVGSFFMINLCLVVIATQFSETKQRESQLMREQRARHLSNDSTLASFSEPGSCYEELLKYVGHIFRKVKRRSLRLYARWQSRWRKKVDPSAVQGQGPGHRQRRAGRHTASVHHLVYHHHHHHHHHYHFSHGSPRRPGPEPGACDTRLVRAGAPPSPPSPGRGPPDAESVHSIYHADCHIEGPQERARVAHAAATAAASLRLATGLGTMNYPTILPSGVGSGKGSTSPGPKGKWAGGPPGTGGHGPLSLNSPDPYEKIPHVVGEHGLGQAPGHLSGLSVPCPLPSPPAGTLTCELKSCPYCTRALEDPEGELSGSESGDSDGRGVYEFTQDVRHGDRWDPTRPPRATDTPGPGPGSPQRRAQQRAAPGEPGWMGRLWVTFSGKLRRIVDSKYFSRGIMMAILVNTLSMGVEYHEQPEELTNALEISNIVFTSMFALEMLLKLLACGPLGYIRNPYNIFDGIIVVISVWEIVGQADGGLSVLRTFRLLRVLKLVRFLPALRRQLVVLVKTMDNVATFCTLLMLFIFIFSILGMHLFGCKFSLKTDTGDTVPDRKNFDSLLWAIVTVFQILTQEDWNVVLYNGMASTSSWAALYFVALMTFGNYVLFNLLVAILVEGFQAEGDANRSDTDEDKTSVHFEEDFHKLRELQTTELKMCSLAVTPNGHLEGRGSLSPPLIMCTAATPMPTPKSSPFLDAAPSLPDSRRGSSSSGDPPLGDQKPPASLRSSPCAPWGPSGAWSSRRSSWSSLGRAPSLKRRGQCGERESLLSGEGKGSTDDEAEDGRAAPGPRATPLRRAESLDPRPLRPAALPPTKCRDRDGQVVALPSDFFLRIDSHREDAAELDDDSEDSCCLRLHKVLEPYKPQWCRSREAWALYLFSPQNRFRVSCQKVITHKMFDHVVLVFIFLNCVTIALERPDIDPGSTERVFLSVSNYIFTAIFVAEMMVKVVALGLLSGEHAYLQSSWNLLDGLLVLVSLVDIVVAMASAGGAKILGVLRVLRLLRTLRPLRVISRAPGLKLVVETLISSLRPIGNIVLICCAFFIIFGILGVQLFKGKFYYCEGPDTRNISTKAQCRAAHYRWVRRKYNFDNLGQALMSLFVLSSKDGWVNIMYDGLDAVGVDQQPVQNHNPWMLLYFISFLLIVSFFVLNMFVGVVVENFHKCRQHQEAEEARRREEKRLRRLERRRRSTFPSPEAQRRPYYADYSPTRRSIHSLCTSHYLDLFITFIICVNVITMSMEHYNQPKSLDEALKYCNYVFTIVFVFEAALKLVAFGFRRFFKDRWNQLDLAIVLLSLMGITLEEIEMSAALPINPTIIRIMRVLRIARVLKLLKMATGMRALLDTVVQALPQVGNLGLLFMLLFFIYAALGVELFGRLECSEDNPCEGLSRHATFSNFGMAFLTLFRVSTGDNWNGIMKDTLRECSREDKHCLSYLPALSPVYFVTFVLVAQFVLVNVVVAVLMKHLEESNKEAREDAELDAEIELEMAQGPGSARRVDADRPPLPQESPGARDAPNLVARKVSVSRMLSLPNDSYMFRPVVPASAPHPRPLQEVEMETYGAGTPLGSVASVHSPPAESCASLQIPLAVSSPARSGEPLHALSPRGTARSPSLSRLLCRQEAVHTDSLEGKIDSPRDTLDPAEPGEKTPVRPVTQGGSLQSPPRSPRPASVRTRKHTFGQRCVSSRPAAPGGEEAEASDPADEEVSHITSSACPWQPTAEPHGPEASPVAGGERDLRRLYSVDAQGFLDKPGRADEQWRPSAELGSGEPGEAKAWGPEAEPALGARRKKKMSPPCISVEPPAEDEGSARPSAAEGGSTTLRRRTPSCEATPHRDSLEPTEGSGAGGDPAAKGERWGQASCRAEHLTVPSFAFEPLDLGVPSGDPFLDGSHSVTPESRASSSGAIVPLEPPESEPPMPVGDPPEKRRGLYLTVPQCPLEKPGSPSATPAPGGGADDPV
Assay [8] shares this target. The assay is described as follows: Inhibition of Cav3.2 (unknown origin) stably transfected in HEK293 cells assessed as activation time constant transient current at 10 uM incubated for 5 mins by whole cell voltage-clamp assay.
The test system of assay [9] is ND7/23. Put plainly: Inhibition of Voltage-dependent T-type calcium channel in mouse ND7/23 cells assessed as reduction in volatage induced T-type Ca2+ current density at 50 uM incubated for 5 mins followed by compound washout by whole cell voltage-clamp assay.
For assay [10], the target named is Voltage-dependent T-type calcium channel subunit alpha-1I (Homo sapiens) (UniProt Q9P0X4). Put plainly: Inhibition of Cav3.3 (unknown origin) stably transfected in HEK293 cells assessed as slope factor at 10 uM incubated for 5 mins by whole cell voltage-clamp assay (reference value: 5.3 +/- 0.6mV).
Sequence of Voltage-dependent T-type calcium channel subunit alpha-1I (Homo sapiens) (Q9P0X4 whole entry): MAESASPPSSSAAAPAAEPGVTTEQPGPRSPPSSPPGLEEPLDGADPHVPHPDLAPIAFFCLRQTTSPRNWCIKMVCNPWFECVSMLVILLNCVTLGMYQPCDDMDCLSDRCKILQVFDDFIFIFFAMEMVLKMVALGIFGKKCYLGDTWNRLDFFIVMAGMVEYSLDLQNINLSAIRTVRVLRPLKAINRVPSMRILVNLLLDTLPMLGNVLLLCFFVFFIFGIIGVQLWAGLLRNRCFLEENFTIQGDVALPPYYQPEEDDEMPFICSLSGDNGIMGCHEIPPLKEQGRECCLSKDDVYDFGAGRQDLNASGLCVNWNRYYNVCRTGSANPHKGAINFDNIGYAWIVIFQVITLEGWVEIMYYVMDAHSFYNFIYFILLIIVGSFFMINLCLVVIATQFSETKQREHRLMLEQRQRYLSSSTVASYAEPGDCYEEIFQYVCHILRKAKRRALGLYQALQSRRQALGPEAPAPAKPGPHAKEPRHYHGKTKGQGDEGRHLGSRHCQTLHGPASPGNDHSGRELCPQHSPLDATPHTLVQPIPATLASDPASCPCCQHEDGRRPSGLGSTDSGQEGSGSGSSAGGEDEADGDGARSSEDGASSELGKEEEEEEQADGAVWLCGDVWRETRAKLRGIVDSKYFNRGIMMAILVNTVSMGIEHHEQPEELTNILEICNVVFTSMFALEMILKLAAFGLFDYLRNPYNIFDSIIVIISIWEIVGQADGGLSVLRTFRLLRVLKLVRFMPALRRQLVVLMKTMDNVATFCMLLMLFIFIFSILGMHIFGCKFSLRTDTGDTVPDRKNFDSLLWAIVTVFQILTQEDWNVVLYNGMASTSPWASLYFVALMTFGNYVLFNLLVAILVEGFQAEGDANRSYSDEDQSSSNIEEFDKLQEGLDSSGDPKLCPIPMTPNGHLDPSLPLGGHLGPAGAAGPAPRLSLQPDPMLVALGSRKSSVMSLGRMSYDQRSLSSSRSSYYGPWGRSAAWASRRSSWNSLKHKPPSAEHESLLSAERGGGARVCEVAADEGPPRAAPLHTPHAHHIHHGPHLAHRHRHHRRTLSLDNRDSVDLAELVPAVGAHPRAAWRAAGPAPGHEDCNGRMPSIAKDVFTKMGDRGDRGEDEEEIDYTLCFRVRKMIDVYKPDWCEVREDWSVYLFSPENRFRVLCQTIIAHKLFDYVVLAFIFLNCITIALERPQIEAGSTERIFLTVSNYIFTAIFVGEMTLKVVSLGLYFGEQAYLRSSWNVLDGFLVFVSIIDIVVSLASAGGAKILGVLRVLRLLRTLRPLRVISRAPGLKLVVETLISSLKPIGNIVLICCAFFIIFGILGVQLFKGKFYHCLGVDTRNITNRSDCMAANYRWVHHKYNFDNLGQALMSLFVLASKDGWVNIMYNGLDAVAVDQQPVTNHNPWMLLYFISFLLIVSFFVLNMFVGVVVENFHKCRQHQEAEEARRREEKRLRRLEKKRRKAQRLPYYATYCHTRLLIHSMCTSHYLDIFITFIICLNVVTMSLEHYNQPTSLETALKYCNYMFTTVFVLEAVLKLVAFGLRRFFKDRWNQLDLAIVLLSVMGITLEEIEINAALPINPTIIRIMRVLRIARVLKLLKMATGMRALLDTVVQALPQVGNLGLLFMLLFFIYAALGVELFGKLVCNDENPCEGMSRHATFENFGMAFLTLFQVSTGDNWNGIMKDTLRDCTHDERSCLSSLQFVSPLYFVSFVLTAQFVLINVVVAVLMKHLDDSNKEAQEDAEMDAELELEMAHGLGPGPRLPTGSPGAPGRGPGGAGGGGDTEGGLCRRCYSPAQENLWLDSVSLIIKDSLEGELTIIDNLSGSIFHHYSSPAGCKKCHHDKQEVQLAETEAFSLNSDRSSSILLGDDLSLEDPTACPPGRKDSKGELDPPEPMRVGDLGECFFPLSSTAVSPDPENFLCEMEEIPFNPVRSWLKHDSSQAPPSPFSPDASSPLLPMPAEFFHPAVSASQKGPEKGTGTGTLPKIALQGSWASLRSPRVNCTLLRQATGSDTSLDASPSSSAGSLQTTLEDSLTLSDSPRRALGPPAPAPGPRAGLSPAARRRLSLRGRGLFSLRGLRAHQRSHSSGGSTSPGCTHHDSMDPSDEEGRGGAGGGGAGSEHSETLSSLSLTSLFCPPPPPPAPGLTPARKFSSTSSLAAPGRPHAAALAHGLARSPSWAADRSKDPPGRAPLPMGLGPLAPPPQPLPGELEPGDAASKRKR
In assay [11] the target is Voltage-dependent T-type calcium channel subunit alpha-1H (Homo sapiens) (UniProt O95180). The assay is described as follows: Inhibition of Cav3.2 (unknown origin) stably transfected in HEK293 cells assessed as increase in recovery time at 10 uM incubated for 5 mins by whole cell voltage-clamp assay (reference value: 514.5 +/- 37.8ms).
The target is the same in assay [12]. The assay is described as follows: Inhibition of Cav3.2 (unknown origin) stably transfected in HEK293 cells assessed as V1/2 at 10 uM incubated for 5 mins by whole cell voltage-clamp assay (reference value: -64.8 +/- 1.3mV).
The test system of assay [13] is HEK293. Put plainly: Inhibition of Cav3.2 (unknown origin) stably transfected in HEK293 cells assessed as reduction in volatage induced Ca2+ current density at 10 uM incubated for 5 mins by whole cell voltage-clamp assay. The following applies: Homo sapiens.
Assay [14] in a line: Inhibition of Voltage-dependent T-type calcium channel in mouse ND7/23 cells assessed as reduction in volatage induced T-type Ca2+ current density incubated for 5 mins by whole cell voltage-clamp assay. The note with it: ND7/23, 5 min.

For the compound `CC1CC(=O)C=C(NC(=O)c2ccccc2C(F)(F)F)C1` (stereo not given), the inhibition result in assay [1] is “Active”.
Take `CC1CC(=O)C=C(NC(=O)c2cccc(C(F)(F)F)c2)C1` (stereo not given): the inhibition result in assay [1] is “Active”.
Take `CC1CC(=O)C=C(NC(=O)c2cc(C(F)(F)F)cc(C(F)(F)F)c2)C1` (stereo not given): the inhibition result in assay [2], in assay [3], in assay [4], in assay [7], in assay [8] and in assay [9] was “Active” each time. Moreover, the inhibition entry in assay [13] is “Active”. The Activity in assay [5] turned out to be 6; in assay [10] it was 5.3. The V1/2 in assay [6] is -58.5 mV; in assay [12], -70.2 mV. Further, the TIME in assay [11] amounted to 0.000267 h. For the same compound, the half-maximal inhibitory concentration (IC50) in assay [14] was determined as 18.9 µM.

What is called IC50 is the concentration that inhibits the measured activity by half.
